According to US20220168389A1, “METHODS OF MAKING CHIMERIC ANTIGEN RECEPTOR-EXPRESSING CELLS” (priority 2019, published 2022):

System: freshly isolated, quiescent human T cells
Experiment: Lentiviral transduction of freshly isolated quiescent (non-activated) T cells, flow cytometry
Type: cell-based
Experimental: Peripheral blood leukocytes from healthy donors were obtained from the Human Immunology Core. Informed consent was obtained from all participants prior to collection. All methods and experimental procedures were approved by the University of Pennsylvania Institutional Review Board. T cells were purified at the University's Human Immunology Core by negative selection using the RosetteSep T cell enrichment Cocktail. T cells were serum starved in RPMI media containing 10 mM HEPES, 2 mM L-glutamine 100 U/mL penicillin G and 100 μg/mL streptomycin for 2-6 hours and then resuspended at a concentration of 10^7 T cells/mL in X-VIVO 15 (Cambrex, Walkersville, Md.) supplemented with 5% normal human AB serum (Valley Biomedical, Winchester, Va.), 2 mM L-glutamine (Cambrex), 20 mM HEPES (Cambrex), IL7 and IL15 (10 ng/mL, Miltenyi Biotec), and deoxynucleosides (50 μM, Sigma). As the medium was switched to X-VIVO 15, T cells were simultaneously transduced with CD19-BBζ CAR or iRFP lentiviral supernatants for 24 hours.
1×10^6 cells were stained for cell surface markers to analyze T-cell differentiation status. […] Cells were washed with phosphate-buffered saline (PBS) and stained for viability using LIVE/DEAD Fixable Violet (Molecular Probes) for 15 minutes, washed once, and resuspended in fluorescence activated cell sorting (FACS) buffer containing PBS, 1% BSA, and 5 mM EDTA. […] Positively stained cells were differentiated from background using fluorescence-minus-one (FMO) controls. […]
For activated T cells, cells were resuspended at 10^6 T cells/mL in X-VIVO 15 (Cambrex, Walkersville, Md.) supplemented with 5% human AB serum (Valley Biomedical, Winchester, Va.), 2 mM L-glutamine (Cambrex), 20 mM HEPES (Cambrex), IL-7 and IL-15 (10 ng/mL, Miltenyi Biotec). […] Cell volume was also measured with a Multisizer III particle counter (Beckman-Coulter) every other day. […]
T cell differentiation was assessed using the following antibodies: anti-CCR7-FITC (BD Pharmingen); anti-CD45RO-PE, anti-CD8-H7APC (BD Biosciences); anti-CD4-BV510, anti-CD3-BV605, anti-CD14-Pacific Blue (PB), anti-CD19-PB (BioLegend). […]

For deoxynucleosides [dNs], the “increase in transduction efficiency of quiescent T cells” value (50 μM dNs vs cells in medium containing IL-7 and IL-15, iRFP vector (FIG. 2B)) was 3 fold, the “increase in lentiviral transduction of non-activated T cells” value (50 μM dNs, normalized to complete media without dNs, iRFP vector (FIG. 6B)) was ~2 fold and the “transduction efficiency in quiescent T cells” value (serum starvation combined with high concentrations of dNs (FIG. 2B)) was “exceeding 50%”.
